{"source": "patent US20060182828A1", "about": "“METHODS OF REDUCING LIPID PEROXIDATION AND ACHIEVING RELATED HEALTH BENEFITS BY THE ADMINISTRATION OF TOCOPHEROL AND SESAME LIGNANS” (priority 2005, published 2006)", "origin": "cited, not measured here", "key": {"LDL [1]": {"tested_on": "LDL"}, "[2]": {"tested_on": "peroxisomal palmitoyl Co-A oxidation", "settings": "in vivo"}, "[3]": {"settings": "rats"}, "mouse skin papillomas": {"tested_on": "mouse skin papillomas", "settings": "induced with 12-0-tetradecanoylphorbol 1 acetate"}, "[4]": {"tested_on": "sterol regulatory element binding protein-1 (SREBP-1) m RNA", "settings": "0.4% sesamin diet group"}, "LDL [5]": {"tested_on": "LDL", "settings": "Cu-ascorbate induced"}, "heart disease": {"tested_on": "heart disease", "settings": "supplementation with 30 IU to 100 IU"}, "[6]": {"settings": "32.4 then 64.8 mg, total of 8 weeks"}, "[7]": {"settings": "hypercholesterolemic men, before"}}, "data": [{"compound": "Cc1c(C)c2c(c(C)c1O)CC[C@@](C)(CCC[C@H](C)CCC[C@H](C)CCCC(C)C)O2", "note": "[alpha-tocopherol]", "values": [{"measurement": "formation of 4-hydroxy-2-nonenal (4-HNE), of control values", "setting": "LDL [1]", "result": "absolutely no effect"}, {"measurement": "formation of malondialdehyde (MDA), of control values", "setting": "LDL [1]", "result": "absolutely no effect"}]}, {"compound": "c1cc2c(cc1[C@H]1OC[C@H]3[C@@H]1CO[C@@H]3c1ccc3c(c1)OCO3)OCO2", "note": "[episesamin]", "values": [{"measurement": "increase of peroxisomal palmitoyl Co-A oxidation rate", "setting": "[2]", "result": 5.1, "unit": "fold"}]}, {"compound": "Cc1c(O)cc2c(c1C)O[C@](C)(CCC[C@H](C)CCC[C@H](C)CCCC(C)C)CC2", "note": "[gamma-tocopherol]", "values": [{"measurement": "gamma tocopherol level in serum", "setting": "[3]; serum", "result": 3, "unit": "micromoles per liter"}, {"measurement": "gamma tocopherol levels in tissues (liver, kidney, brain)", "setting": "[3]; tissue", "result": 3, "unit": "nmol per gram"}]}, {"compound": "CC(C)(Sc1cc(C(C)(C)C)c(O)c(C(C)(C)C)c1)Sc1cc(C(C)(C)C)c(O)c(C(C)(C)C)c1", "note": "[probucal]", "values": [{"measurement": "formation of 4-hydroxy-2-nonenal (4-HNE), of control values", "setting": "LDL [1]", "result": "absolutely no effect"}, {"measurement": "formation of malondialdehyde (MDA), of control values", "setting": "LDL [1]", "result": "absolutely no effect"}]}, {"compound": "Oc1ccc(C=Cc2cc(O)cc(O)c2)cc1", "note": "[resveratrol]", "values": [{"measurement": "reduction of formation of mouse skin papillomas", "setting": "mouse skin papillomas", "result": 60, "unit": "%"}]}, {"compound": "c1cc2c(cc1[C@H]1OC[C@H]3[C@@H]1CO[C@@H]3c1ccc3c(c1)OCO3)OCO2", "note": "[sesamin]", "values": [{"measurement": "LDL cholesterol, after", "setting": "[6]", "result": 156.4}, {"measurement": "apolipoprotein B, after", "setting": "[6]", "result": 168.5}, {"measurement": "changes in HDL cholesterol", "setting": "[6]", "result": "no changes"}, {"measurement": "changes in triglycerides", "setting": "[6]", "result": "no changes"}, {"measurement": "mean total cholesterol, after", "setting": "[6]", "result": 248.3}, {"measurement": "LDL cholesterol, before", "setting": "[7]", "result": 187.1}, {"measurement": "apolipoprotein B, before", "setting": "[7]", "result": 188.8}, {"measurement": "mean total cholesterol, before", "setting": "[7]", "result": 272.0}, {"measurement": "SREBP-1 m RNA level relative to rats fed a sesamin-free diet", "setting": "[4]", "result": "one-half"}, {"measurement": "increase of peroxisomal palmitoyl Co-A oxidation rate", "setting": "[2]", "result": 1.6, "unit": "fold"}]}, {"compound": "Oc1cc2c(cc1[C@H]1OC[C@H]3[C@@H]1CO[C@@H]3c1ccc3c(c1)OCO3)OCO2", "note": "[sesaminol]", "values": [{"measurement": "lag time longer than tetrahydrocurcumin", "setting": "LDL [5]", "result": 567, "unit": "%"}, {"measurement": "lag time of LDL oxidation", "setting": "LDL [5]", "result": 510, "unit": "min"}, {"measurement": "formation of 4-hydroxy-2-nonenal (4-HNE), of control values", "setting": "LDL [1]", "result": 17, "unit": "%"}, {"measurement": "formation of malondialdehyde (MDA), of control values", "setting": "LDL [1]", "result": 13, "unit": "%"}, {"measurement": "inhibited TBARS formation", "setting": "LDL [1]; 0.1 micromolar concentration", "result": 82.8, "unit": "%"}, {"measurement": "protection against TBARS formation", "setting": "LDL [1]; one micromolar concentration", "result": 100, "unit": "%"}, {"measurement": "IC50", "setting": "LDL [1]; read-out: IC50, lipid peroxidation of LDL", "result": "36 ± 10", "unit": "nM"}]}, {"compound": "Oc1ccc2c(c1)OCO2", "note": "[sesamol]", "values": [{"measurement": "reduction of formation of mouse skin papillomas", "setting": "mouse skin papillomas", "result": 50, "unit": "%"}]}, {"compound": "vitamin E", "values": [{"measurement": "lowers the risk of heart disease", "setting": "heart disease", "result": 41, "unit": "%"}]}]}
